Measurements taken from EPA's CvTdb concentration-time database.

Assays:
Experiment in all cases: concentration in plasma after dosing
[1] = test system: Rat; details: dosed: DL-Camphor, 6 mg/kg, iv, Female, F344
[2] = test system: Rat; details: 1.5 h; dosed: DL-Camphor; 6 mg/kg; iv; Male; F344
[3] = test system: Rat; details: 1 h; dosed: DL-Camphor; 6 mg/kg; iv; Female; F344
[4] = test system: Rat; details: dosed: DL-Camphor, 6 mg/kg, iv, Male, F344
[5] = test system: Rat; details: dosed: DL-Camphor, 6 mg/kg, iv, Male, F344; remark: listed apart in the source
[6] = test system: Rat; details: 1.5 h; dosed: DL-Camphor; 6 mg/kg; iv; Female; F344
[7] = test system: Rat; details: iv, F344
[8] = test system: Rat; details: dosed: DL-Camphor, 6 mg/kg, iv, Male, F344; remark: listed apart in the source
[9] = test system: Rat; details: dosed: DL-Camphor, 6 mg/kg, iv, Female, F344; remark: listed apart in the source
[10] = test system: Rat; details: dosed: DL-Camphor, 6 mg/kg, iv, Male, F344; remark: listed apart in the source
[11] = test system: Rat; details: dosed: DL-Camphor, 6 mg/kg, iv, Female, F344; remark: listed apart in the source
[12] = test system: Rat; details: 6 h; dosed: DL-Camphor; 6 mg/kg; iv; Male; F344
[13] = test system: Rat; details: dosed: DL-Camphor, 6 mg/kg, iv, Male, F344; remark: listed apart in the source
[14] = test system: Rat; details: 1.5 h; dosed: DL-Camphor; 6 mg/kg; iv; Female; F344; remark: listed apart in the source
[15] = test system: Rat; details: dosed: DL-Camphor, 6 mg/kg, iv, Female, F344; remark: listed apart in the source
[16] = test system: Rat; details: dosed: DL-Camphor, 6 mg/kg, iv, Male, F344; remark: listed apart in the source
[17] = test system: Rat; details: dosed: DL-Camphor, 6 mg/kg, iv, Female, F344; remark: listed apart in the source
[18] = test system: Rat; details: dosed: DL-Camphor, 6 mg/kg, iv, Female, F344; remark: listed apart in the source
[19] = test system: Rat; details: dosed: DL-Camphor, 6 mg/kg, iv, Male, F344; remark: listed apart in the source
[20] = test system: Rat; details: dosed: DL-Camphor, 6 mg/kg, iv, Male, F344; remark: listed apart in the source
[21] = test system: Rat; details: dosed: DL-Camphor, 6 mg/kg, iv, Female, F344; remark: listed apart in the source
[22] = test system: Rat; details: dosed: DL-Camphor, 6 mg/kg, iv, Female, F344; remark: listed apart in the source
[23] = test system: Rat; details: dosed: DL-Camphor, 6 mg/kg, iv, Male, F344; remark: listed apart in the source
[24] = test system: Rat; details: dosed: DL-Camphor, 6 mg/kg, iv, Male, F344; remark: listed apart in the source
[25] = test system: Rat; details: 1 h; dosed: DL-Camphor; 6 mg/kg; iv; Female; F344; remark: listed apart in the source
[26] = test system: Rat; details: 1 h; dosed: Bromodichloromethane; 10 mg/kg; iv; Female; F344
[27] = test system: Rat; details: 10 min; dosed: Bromodichloromethane; 10 mg/kg; iv; Male; F344
[28] = test system: Rat; details: dosed: Bromodichloromethane, 10 mg/kg, iv, Male, F344
[29] = test system: Rat; details: 10 min; dosed: Bromodichloromethane; 10 mg/kg; iv; Female; F344
[30] = test system: Rat; details: dosed: Bromodichloromethane, 10 mg/kg, iv, Male, F344; remark: listed apart in the source
[31] = test system: Rat; details: 1 h; dosed: Bromodichloromethane; 10 mg/kg; iv; Male; F344
[32] = test system: Rat; details: dosed: Bromodichloromethane, 10 mg/kg, iv, Male, F344; remark: listed apart in the source
[33] = test system: Rat; details: 10 min; dosed: Bromodichloromethane; 10 mg/kg; iv; Male; F344; remark: listed apart in the source
[34] = test system: Rat; details: 1 h; dosed: Bromodichloromethane; 10 mg/kg; iv; Female; F344; remark: listed apart in the source
[35] = test system: Rat; details: dosed: Bromodichloromethane, 10 mg/kg, iv, Female, F344
[36] = test system: Rat; details: dosed: Bromodichloromethane, 10 mg/kg, iv, Female, F344; remark: listed apart in the source
[37] = test system: Rat; details: dosed: Bromodichloromethane, 10 mg/kg, iv, Female, F344; remark: listed apart in the source
[38] = test system: Rat; details: 4 h; dosed: Bromodichloromethane; 10 mg/kg; iv; Male; F344
[39] = test system: Rat; details: dosed: Bromodichloromethane, 10 mg/kg, iv, Female, F344; remark: listed apart in the source
[40] = test system: Rat; details: dosed: Bromodichloromethane, 10 mg/kg, iv, Female, F344; remark: listed apart in the source
[41] = test system: Rat; details: dosed: Bromodichloromethane, 10 mg/kg, iv, Male, F344; remark: listed apart in the source
[42] = test system: Rat; details: dosed: Bromodichloromethane, 10 mg/kg, iv, Male, F344; remark: listed apart in the source
[43] = test system: Rat; details: dosed: Bromodichloromethane, 10 mg/kg, iv, Female, F344; remark: listed apart in the source
[44] = test system: Rat; details: dosed: Bromodichloromethane, 10 mg/kg, iv, Male, F344; remark: listed apart in the source
[45] = test system: Rat; details: dosed: Bromodichloromethane, 10 mg/kg, iv, Male, F344; remark: listed apart in the source
[46] = test system: Rat; details: dosed: Bromodichloromethane, 10 mg/kg, iv, Female, F344; remark: listed apart in the source
[47] = test system: Rat; details: 1 h; dosed: Bromodichloromethane; 10 mg/kg; iv; Male; F344; remark: listed apart in the source
[48] = test system: Rat; details: dosed: Bromodichloromethane, 10 mg/kg, iv, Female, F344; remark: listed apart in the source
[49] = test system: Rat; details: dosed: Bromodichloromethane, 10 mg/kg, iv, Female, F344; remark: listed apart in the source
[50] = test system: Rat; details: dosed: Bromodichloromethane, 10 mg/kg, iv, Female, F344; remark: listed apart in the source

CC12CCC(CC1=O)C2(C)C (racemic) [DL-Camphor]
Details	concentration in plasma [ng/mL]
[1], 0.75 h	526
[1], 8 h	98.3
[4], 0.75 h	545
[4], 8 h	49.1
[5], 0.25 h	1680
[5], 1.5 h	197
[8], 1 h	411
[8], 10 h	35
[9], 0.5 h	612
[9], 4 h	61.7
[10], 0.5 h	258
[10], 4 h	135
[11], 2 h	191
[11], 5 min	3070
[13], 0.5 h	648
[13], 4 h	127
[15], 2 h	152
[15], 5 min	2850
[16], 0.25 h	1710
[16], 6 h	88.1
[17], 0.25 h	132
[17], 6 h	70.2
[18], 0.5 h	848
[18], 4 h	62.7
[19], 2 h	205
[19], 5 min	3700
[20], 2 h	205
[20], 5 min	4050
[21], 0.75 h	114
[21], 8 h	46.7
[22], 0.25 h	1520
[22], 6 h	18.3
[23], 0.75 h	577
[23], 8 h	31.3
[24], 1 h	257
[24], 10 h	77.4

Details	concentration in plasma [ng/mL]
[2]	228
[3]	411
[6]	240
[12]	87
[14]	121
[25]	391

concentration in plasma [ng/mL], [7], dosed: DL-Camphor, 6 mg/kg
Details	Female	Male
0.25 h	1250	1350
0.5 h	731	839
0.75 h	527	617
1 h	96	326
1.5 h	332	196
2 h	221	186
4 h	65.9	138
5 min	3000	4140
6 h	222	76.7
8 h	–	31
10 h	10.3	27.3

ClC(Cl)Br [Bromodichloromethane]
Details	concentration in plasma [ng/mL]
[26]	92.4
[27]	1310
[29]	779
[31]	186
[33]	1640
[34]	68
[38]	11.1
[47]	151

Details	concentration in plasma [ng/mL]
[28], 0.25 h	1340
[28], 8 h	3.44
[30], 4 h	21.8
[30], 5 min	2570
[32], 2 h	56.3
[32], 5 min	2210
[35], 0.25 h	341
[35], 8 h	10.7
[36], 2 h	18.4
[36], 10 min	926
[37], 0.5 h	307
[37], 2 h	40.2
[39], 2 min	2280
[39], 6 h	8.65
[40], 0.25 h	44.5
[40], 8 h	6.93
[41], 2 min	3310
[41], 6 h	26.3
[42], 0.5 h	402
[42], 2 h	42.5
[43], 0.5 h	67.9
[43], 2 h	87.6
[44], 0.25 h	535
[44], 8 h	6.97
[45], 2 min	2880
[45], 6 h	16.1
[46], 0.25 h	618
[46], 8 h	3.69
[48], 4 h	9.88
[48], 5 min	2300
[49], 0.5 h	203
[49], 4 h	13.8
[50], 2 min	1680
[50], 6 h	11.9

concentration in plasma [ng/mL], [7], dosed: Bromodichloromethane, 10 mg/kg
Details	Female	Male
0.25 h	70.4	1070
0.5 h	312	220
1 h	62.1	105
2 h	63.4	60.8
2 min	2590	2820
4 h	7.81	15.7
5 min	1170	1100
6 h	7.86	31.4
8 h	6.28	4.65
10 min	589	1070
12 h	–	3.96
